{"source": "patent EP0551200A1", "about": "“Protein phosphatase inhibitors for use in therapy” (priority 1992, dated 1993)", "key": {"human fibroblasts [1]": {"system": "human fibroblasts", "experiment": "Early protein phosphorylation changes in 32P-labeled cells, two-dimensional gel electrophoresis with computerized densitometry", "type": "cell-based", "quoted_text": "The cells were then subjected to analysis by high resolution two-dimensional gel electrophoresis combined with computerized imaging as previously described (Guy et al, J. Biol. Chem. 266, 14343-14352, 1991).\nRadiolabeling of Cells and Cell Lysis - For labeling with [³²P]orthophosphate cells were plated onto 90 mm plastic tissue culture dishes and incubated for 3 days for the cells to become confluent. Immediately before labeling, the media was removed and the cells were washed twice with 5 ml of phosphate- and serum-free media (150 mM NaCl, 5 mM MgCl₂, 5 mM KCl, 1.6 mM CaCl₂, 0.5% glucose, 10 mM Tris, 0.1% bovine serum albumin, pH 7.4) before the addition of 1 mCi/ml of [³²P]orthophosphate in 3 ml of the same media to each plate. The plates were incubated at 37°C in a humidified CO₂ incubator for 2 h before the addition of the okadaic acid or other agonists at the concentrations and for the times indicated in the figures and table. The agonists were reconstituted in aqueous buffered solution or in dimethyl sulfoxide. […] At the completion of labeling the media was removed, and the cells were rapidly washed twice with 5 ml of ice-cold phosphate-buffered saline before being solubilised in 200 µl of cytosol extraction buffer (10mM Tris-HCl, 50 mM EDTA, 50 mM NaCl, 30 mM sodium pyrophosphate, 50 mM NaF, 100µM Na₃VO₄, 0.65% Nonidet P-40, 2 mM leupeptin, 2mM phenylmethylsulfonyl fluoride, pH 7.4). The lysate was collected and centrifuged for 5 min at 14,000 rpm. The pellet containing the nuclear fraction (including the cytoskeletal-membrane fractions) was separated from the cytosolic fraction. Both fractions were lyophilized.\nTwo-dimensional Gel Electrophoresis - The lyophilized fractions (each of approximately 12 µg) were subjected to isoelectric focusing for 18,000 V/h with pH 3-10 ampholytes using the Millipore Investigator two-dimensional electrophoresis system (Millipore). Following this, the first-dimension gel was extruded and equilibrated in SDS buffer for 2 min before being loaded onto the second dimension 12.5% SDS-polyacrylamide gel. The gel was fixed, dried and ³²P-labeled polypeptides were located by autoradiography by using intensifying screens at -80°C. For measurement of the pH profile, carbamylated protein standards (Pharmacia LKB Biotechnology Inc.) were co-run on duplicate gels and related to proteins of known pI on previously calibrated samples. Molecular weight marker proteins from Sigma were detected by Coomassie Blue staining and marked on the autoradiogram. ³²P-Labeled 27 hsp complex prepared from human fibroblasts heat shocked at 43°C for 30 min was also used as a marker.\nQuantitative Determination of Protein Phosphorylation - The amount of protein phosphorylation on autoradiographs derived from cytosolic membrane or antibody-precipitated preparations containing equal amounts of protein were analyzed by computerized densitometry using a Visage 2000 Image analysis system (BioImage Products, Ann Arbor, MI, US).\nThe ³²P-labeled protein spots are resolved and detected by autoradiography of the high definition two-dimensional gel electrophoresis of cytosolic extracts prepared from ³²P-labeled human fibroblasts. The radioactive spots (each representing one or more phosphoproteins) are analyzed by computerized densitometry. Each spot is arbitrarily assigned a number. […]"}, "Egr-1 mRNA": {"system": "Egr-1 mRNA", "experiment": "cells", "type": "cell-based, mouse", "description": "10 µg of RNA was applied to each lane and subjected to Northern blot analysis using an Egr-1 specific cDNA probe [1.6 kb Bgl II fragment (Sukhatme et al, Cell 53, 37-48, 1988)]. The same blots were rehybridized with actin or GADPH cDNA for normalizing the amount of RNA loaded. The blots were dried and autoradiographed. • (A). Time course of okadaic acid-induced Egr-1 and c-jun messages in primary human fibroblasts. Quiescent human fibroblasts were induced with 1 µM of okadaic acid for the time periods indicated. […] Time course of okadaic acid-induced Egr-1 message in Balb/c 3T3 cells. Quiescent Balb/c 3T3 cells were induced with okadaic acid (0.5µM) for the times indicated. • (C). Concentration dependent induction of Egr-1 message by okadaic acid in Balb/c 3T3 cells. Quiescent Balb/c 3T3 cells were induced with the indicated concentrations of okadaic acid for 1 h. As controls, different concentrations of DMSO were included. These corresponded to the amounts present in 0.25 µM okadaic acid (0.025% dimethyl sulphoxide (DMSO)) 0.5 µM okadaic acid (0.05% DMSO) and 1 µM okadaic acid (0.1%). • (D). Concentration dependent and time course induction of Egr-1 message by calyculin A. Quiescent Balb/c 3T3 cells were induced with different concentrations of calyculin A for 1 h. Northern analysis of this dose-dependent induction by calyculin A is shown on the left panel of the figure. […] Northern analysis of this time course induction by calyculin A is shown in the right panel of the figure. The same blot was rehybridized with pCMV-fos (Curran et al, Oncogene 2, 79-84, 1987) and pCMV-jun (Rauscher et al, 1988) shown in the middle panel. The blot was dried and autoradiographed.\nQuiescent primary human fibroblasts were incubated with okadaic acid (OA) or TPA for 1 or 3 h. The concentrations of OA and TPA were 0.5 µM and 120 ng/ml, respectively. The concentration of 1-(5-isoquinolinylsulfonyl)-2-methylpiperazine dihydrochloride (H7) and N-(2-guanidinoethyl)-5-isoquinolinesulphonamide dihydrochloride (HA1004) used was 25 µM. The cells were pre-treated for 15 min with H7 or HA1004 before they were induced by OA or TPA for 1 or 3 h. Cells were harvested, RNA was isolated and subjected to Northern blot analysis. The blot was probed with Egr-1 or GADPH cDNA. • (B). As a positive control, primary human fibroblasts were treated with TPA (30 ng/ml) for 1 h (1st lane). The fibroblasts were also pre-treated with H7 (25 µM) or HA1004 (25 µM) for 15 min before treatment with TPA for 1 h (2nd and 3rd lanes respectively). […] The blot was probed with Egr-1 or actin cDNA. • (C). Quiescent Balb/c 3T3 cells were incubated with OA, TPA or dBt-cAMP for 1 h or pre-treated with H7 (25 µM) or HA1004 (25 µM) for 15 min and then incubated with each of the agonists for 1 h. Cells were harvested, RNA was isolated and subjected to Northern blot analysis. The concentration of each agonist used was as follows: lane a: 0.5 µM of OA, lane b: 100 ng/ml of TPA, lane c: 1 mM of dBt-cAMP, lane d: H7 plus OA (0.5 µM), lane e: H7 plus TPA (100 ng/ml), lane f: H7 plus dBt-cAMP (1 mM), lane g: HA1004 plus OA (0.5 µM), lane h: HA1004 plus TPA (100 ng.ml), lane i: HA1004 plus dBt-cAMP (1mM). The blot was probed with Egr-1 or GADPH cDNA.\nCell Cultures and Reagents. Human diploid foreskin fibroblasts were a gift from Dr J Vilcek (New York University, New York). The cells were grown in MEM supplemented with 10% fetal bovine serum (Hyclone, Logan, UT, US), Mouse Balb/c 3T3 cells were purchased from the American Type Culture Collection and grown in Dulbecco's MEM (DMEM) supplemented with 10% fetal bovine serum. Okadaic acid, calyculin A, H7, and HA1004 were purchased from Biomol Research Laboratories (Plymouth Meeting, PA, US). TPA, puromycin and dBt-cAMP were purchased from Sigma (St Louis, MO, US) 1 mM stock solutions of okadaic acid or calyculin A were solubilized in DMSO. [³²P]orthophosphate and other radioactive chemicals were purchased from Du Pont-New England Nuclear (Boston, MA). […]"}, "human fibroblasts [2]": {"system": "human fibroblasts", "experiment": "Total cellular protein synthesis in human fibroblasts", "type": "cell-based", "details": "data not shown", "description": "Quiescent human fibroblasts were stimulated with MEM containing 0.5 µM okadaic acid in the presence or absence of cycloheximide (10 µg/ml) for the times indicated in Fig. 11. […] Treatment of cells with cycloheximide enhanced the induction of Egr-1 mRNA by okadaic acid at 1.5 and 3 h (Fig. 11). Similarly puromycin, like cycloheximide, also \"superinduces\" the induction of the Egr-1 mRNA by okadaic acid (data not shown). […] However, in view that protein phosphatase 1 (PP1) and protein phosphatase 2A (PP2A) regulate enzymes associated with cellular protein synthesis (Cohen, Annu. Rev. Biochem. 58, 453-508, 1989) the effect of okadaic acid on protein synthesis in mouse and human fibroblasts was also measured. […] By then the Egr-1 mRNA message was already induced. A corollary to this is a comparison of the amount of ³⁵S-methionine labelled Egr-1 protein immunoprecipitated by R5232 antibodies from protein phosphatase inhibitor-treated and control cells. […] Thus, the induction of the Egr-1 gene by phosphatase inhibitors is unlikely to be mediated by their late inhibitory effects on cellular protein synthesis."}, "[3]": {"details": "cytosolic fraction, first 15 min of ligand treatment"}}}
{"compound": "C=C1[C@@H](O)[C@@H]2O[C@]3(CC[C@H](/C=C/[C@@H](C)[C@@H]4CC(C)=C[C@@]5(O[C@H](C[C@@](C)(O)C(=O)O)CC[C@H]5O)O4)O3)CC[C@H]2O[C@@H]1[C@@H](O)C[C@H](C)[C@H]1O[C@@]2(CCCCO2)CC[C@H]1C", "note": "[okadaic acid]", "values": [{"measurement": "number of proteins dephosphorylated", "setting": "human fibroblasts [1]; [3]", "value": "six"}, {"measurement": "number of proteins with early phosphorylation changes", "setting": "human fibroblasts [1]; [3]", "value": "about 60 proteins"}, {"measurement": "identity of changes in early protein phosphorylation with those induced by TNF", "setting": "human fibroblasts [1]; cytosolic fraction, okadaic acid, 15 min, TNF 50 units/ml", "value": "about 95%"}, {"measurement": "changes in protein phosphorylation compared with TNF treatment (in words)", "setting": "human fibroblasts [1]; nuclear/cytoskeletal membrane fraction, 46-50 proteins, 15 min", "value": "almost identical changes"}, {"measurement": "time for which the Egr-1 mRNA level is maintained", "setting": "Egr-1 mRNA; 0.5 µM", "value": "up to 7 h"}, {"measurement": "time of maximal induction of Egr-1 mRNA", "setting": "Egr-1 mRNA; 0.5 µM", "value": "about 2 h"}, {"measurement": "time to induction of Egr-1 mRNA", "setting": "Egr-1 mRNA; 0.5 µM", "value": "≤ 1", "unit": "h"}, {"measurement": "concentration inducing an equivalent fold increase in Egr-1 mRNA", "setting": "Egr-1 mRNA; 1 h, calyculin A compared with okadaic acid", "value": 1000, "unit": "nM"}, {"measurement": "fold induction at 0.5 µM", "setting": "Egr-1 mRNA; Mus musculus, BALB/c3T3, 0.5 µM, maintained level, read-out: Egr-1 mRNA level over control", "value": "30 to 40"}, {"measurement": "effect on total cellular protein synthesis (in words)", "setting": "human fibroblasts [2]; 0.5 µM, first 2 h", "value": "little measurable effect"}, {"measurement": "inhibition at 0.5 µM", "setting": "human fibroblasts [2]; Homo sapiens, Fibroblast, at 4 h", "value": "≤ 50", "unit": "%"}]}
